Measurements taken from publication PMC10496123, “Potent Antifungal Activity of Penta-O-galloyl-β-D-Glucose against Drug-Resistant Candida albicans, Candida auris, and Other Non-albicans Candida Species” (ACS Infectious Diseases, 2023).
Converted amounts (≈) assume the structure as drawn. “Also recorded” adds a separate entry of the source.

Legend:
C. albicans [1] = assay: Ergosterol binding assay (growth inhibition with exogenous ergosterol); assay type: cell-based, Candida albicans; details: 80 μg mL^–1 exogenous ergosterol, 1×–4× MIC, 24 h
Protocol: Ergosterol binding was measured using a previously described method,[60] with some modifications. Briefly, ergosterol (TCI) was pulverized with a sterile pestle and mortar and then dissolved in 100% ethanol. The resultant emulsion was warmed at 37 °C for 15 min and then sonicated for 45 min prior to use. […] The negative control was untreated culture. A media blank was used to monitor for contamination. Experiments were repeated in triplicate with three technical replicates per treatment and on different days. page 5: Figure S4. Growth inhibition of penta-O-galloyl-β-D-glucose against C. albicans not affected by additional ergosterol. C. albicans was treated with PGG or […] mL-1). After 24 hours, treatment groups were measured for growth inhibition. The data are plotted as mean % growth inhibition ± SD as compared to vehicle controls from three independent experiments . Dotted line represents 90% growth inhibition . S5 (1 picture or pasted object on this page, not shown here)

[2] = tested on: Staphylococcus aureus (various strains); parameters: method as in doi:10.1016/j.foodchem.2010.04.072; details: antibacterial; possibly iron chelation; cited from earlier work
Candida glabrata = assay: Growth inhibition by CLSI microbroth dilution; assay type: cell-based; details: for IC50 / MIC: Nakaseomyces glabratus, 48 h; for IC50: >50% growth inhibition; for MIC: >90% growth inhibition
[3] = tested on: Acinetobacter baumannii (various strains); parameters: method as in PMID 32948818; details: antibacterial; possibly iron chelation; cited from earlier work
[4] = tested on: C. albicans wild type (CAF2-1) and cdr1Δ/Δ cdr2Δ/Δ mdr1Δ/Δ flu1Δ/Δ; assay: microbe, parasite or virus in culture; assay type: cell-based, Candida albicans; details: for MIC90: Candida albicans, 72 h, RPMI-1640, 72 h, 30 °C, OD600
[5] = tested on: C. albicans wild type (SN95, SN152) and ire1Δ/Δ, hap43Δ/Δ, rim101Δ/Δ; assay: microbe, parasite or virus in culture; assay type: cell-based, Candida albicans; details: for MIC90: Candida albicans, 48 h, 30 °C
rats = details: up to 120 mg/kg/day intravenously in rats; cited from earlier work
MRSA (various strains) = details: antibacterial; possibly iron chelation; cited from earlier work
C. glabrata CDC325 = assay: Iron supplementation growth inhibition assay; assay type: cell-based, Candida glabrata; details: 10 mM iron (II) or iron (III); PGG 4–16 μg mL^–1; 48 h
Protocol: For iron supplementation assays, growth inhibition assays were performed by microbroth dilution following the guidelines set by the CLSI.[58] A solution of iron (II) sulfate and iron (III) sulfate (VWR) was dissolved in deionized water to a concentration of 10 mM and added to treated wells at the beginning of incubation. Growth inhibition was measured after 48 h. Percent growth inhibition was determined by comparing treatments to vehicle controls. Iron supplementation experiments were repeated in duplicate with three technical replicates per treatment and on different days.

SK-HEP-1 cells = tested on: SK-HEP-1 cells; parameters: method as in PMID 11675148; details: inhibition of proliferation; cited from earlier work
C. albicans 90028 = assay: Media supplementation (Mg, Ca, Mn, Zn) growth inhibition assay; assay type: cell-based, Candida albicans
Protocol: For media supplementation experiments, magnesium sulfate (Alfa Aesar), manganese sulfate, zinc sulfate, and calcium chloride (Ward Science) were dissolved in RPMI-1640 media and, after 24 h, added at a final concentration of 1 mM. Growth inhibition was measured 24 h after media supplementation. Percent growth inhibition was determined by comparing treatments to vehicle controls. Media supplementation experiments were repeated in triplicate with four technical replicates per treatment and on different days. page 6: Figure S5. Effect of supplemental cations on growth inhibition of penta-O-galloyl- β-D-glucose against C. albicans. C. albicans.90028 was treated with PGG alone and in combination with 1 mM magnesium (Mg2+) or 1 mM calcium (Ca2+). The data are plotted as mean % growth inhibition ± SD as compared to vehicle controls from two independent experiments. Dotted line represents 90% growth inhibition. S6 (1 picture or pasted object on this page, not shown here) page 7: Figure S6. Effect of supplemental metal ions on growth inhibition of penta-O- galloyl-β-D-glucose against C. albicans. C. albicans 90028 was treated with PGG alone and in combination with 1 mM manganese (Mn2+) or 1 mM zinc (Zn2+). The data are plotted as mean % growth inhibition ± SD as compared to vehicle controls from two independent experiments . Dotted line represents 90% growth inhibition . Statistical analysis was done using 2 -way ANOVA with multiple comparisons. The symbol (*) […] S7 (1 picture or pasted object on this page, not shown here)

C. albicans [6] = assay: Concentration-response matrixes (checkerboard assays); assay type: cell-based, Candida albicans; details: FICI at 90% growth inhibition, 48 h, 30 °C

Which results are given for O=C(OC[C@H]1O[C@@H](OC(=O)c2cc(O)c(O)c(O)c2)[C@H](OC(=O)c2cc(O)c(O)c(O)c2)[C@@H](OC(=O)c2cc(O)c(O)c(O)c2)[C@@H]1OC(=O)c1cc(O)c(O)c(O)c1)c1cc(O)c(O)c(O)c1 [PGG, penta-O-galloyl-β-D-glucose]?
Growth inhibitory activity with additional ergosterol (C. albicans [1]): not affected; IC50/EC50 [2]: 16 to 32 µg/mL; IC50 (Candida glabrata; strain AR Bank #0325): 0.25 µg/mL (≈ 0.266 µM); MIC (Candida glabrata; strain AR Bank #0325): 0.5 µg/mL (≈ 0.532 µM); IC50 (Candida glabrata; strain AR Bank #0326): 0.125 µg/mL (≈ 0.133 µM); MIC (Candida glabrata; strain AR Bank #0326): 0.25 µg/mL (≈ 0.266 µM); MIC (range over strains) (Candida glabrata; two strains of C. glabrata): 0.25 to 0.5 μg mL^–1; IC50/EC50 [3]: 16 to 64 µg/mL; MIC90 ([4]; Wild type (CAF2-1)): > 5 µg/mL; MIC90 ([4]; cdr1Δ/Δ cdr2Δ/Δ mdr1Δ/Δ flu1Δ/Δ): > 5 µg/mL; Effect of absence of major efflux pumps (CDR1, CDR2, FLU1, MDR1) on sensitivity ([4]; mutant versus wild type): did not modify sensitivity; MIC90 ([5]; Wild type (SN95)): > 20 µg/mL; MIC90 ([5]; Wild type (SN152)): > 20 µg/mL; MIC90 ([5]; hap43Δ/Δ): 0.625 µg/mL (≈ 0.664 µM); MIC90 ([5]; ire1Δ/Δ): 0.625 µg/mL (≈ 0.664 µM); MIC90 ([5]; rim101Δ/Δ): 0.625 µg/mL (≈ 0.664 µM); Effect of deletion of IRE1, HAP43 and RIM101 on sensitivity ([5]; mutants versus wild type): hypersensitive; also recorded: hypersensitivity; Tolerability (rats): no ill effects; IC50/EC50 (MRSA (various strains)): 16 to 32 µg/mL; Reduction of the growth inhibitory activity on iron supplementation (C. glabrata CDC325): 80–100%; IC50/EC50 (SK-HEP-1 cells): 25 to 50 µM; Effect of cation treatment (calcium, magnesium) on growth inhibition (C. albicans 90028; 1 mM Mg2+ or Ca2+): no significant effect; Effect of manganese supplementation on growth inhibition (C. albicans 90028; 1 mM Mn2+, at 0.5× MIC of PGG): minor effect; Effect of zinc supplementation on growth inhibition (C. albicans 90028; 1 mM Zn2+): no effect; Synergistic interaction with caspofungin (C. albicans [6]; C. albicans ATCC 90028): does not potentiate; Synergistic interaction with fluconazole (C. albicans [6]; azole-tolerant clinical isolate CaCi-2): does not potentiate
